pIC50: −log10 of the molar value.
Assays:
Human SGLT2 (hSGLT2) = Human SGLT2 (hSGLT2) (Homo sapiens (Human), UniProt P31639); assay: Inhibitory effects on human SGLT2 activities (14C-AMG uptake, sodium-dependent glucose transport assay); type: cell-based; conditions: hSGLT2-expressing CHO cells, 37° C. for 2 h, single determinations
Text: Test 1: Cloning and Cell Line Construction for Human SGLT2
Human SGLT2 (hSGLT2) gene was amplified by PCR from cDNA-Human Adult Normal Tissue Kidney (Invitrogen). The hSGLT2 sequence was cloned into pcDNA3.1(+) for mammalian expression and stably transfected into chinese hamster ovary (CHO) cells. SGLT2-expressing clones were selected based on resistance to G418 antibiotic (Geneticin) and activity in the ^14C-α-methyl-D-glucopyranoside (^14C-AMG) uptake assay.
Test 2: Inhibitory Effects on Human SGLT2 Activities
(§1) For sodium-dependent glucose transport assay, cells expressing hSGLT2 were seeded into a 96-well culture plate at a density of 5×10^4 cells/well in RPMI medium 1640 containing 10% fetal bovine serum. The cells were used 1 day after plating. They were incubated in pretreatment buffer (10 mM HEPES, 5 mM Tris, 140 mM choline chloride, 2 mM KCl, 1 mM CaCl2, and 1 mM MgCl2, pH 7.4) at 37° C. for 10 min. They were then incubated in uptake buffer (10 mM HEPES, 5 mM Tris, 140 mM NaCl, 2 mM KCl, 1 mM CaCl2, 1 mM MgCl2, and 1 mM ^14C-nonlabeled AMG pH 7.4) containing ^14C-labeled AMG (8 μM) and the inventive compound or dimethyl sulfoxide (DMSO) vehicle at 37° C. for 2 h. Cells were washed twice with washing buffer (pretreatment buffer containing 10 mM AMG at room temperature) and then the radioactivity was measured using a liquid scintillation counter. IC50 was determined by nonlinear regression analysis using GraphPad PRISM [Katsuno, K. et al. J. Pharmacol. Exp. Ther. 2007, 320, 323-330; Han, S. et al. Diabetes, 2008, 57, 1723-1729].

Human SGLT1 (hSGLT1) = Human SGLT1 (hSGLT1) (Homo sapiens (Human), UniProt P13866); assay: Inhibitory effects on human SGLT1 activities (14C-AMG uptake, sodium-dependent glucose transport assay); type: cell-based; conditions: 37° C. for 2 h, single determinations
Sequence of Human SGLT1 (hSGLT1) (P13866 whole entry): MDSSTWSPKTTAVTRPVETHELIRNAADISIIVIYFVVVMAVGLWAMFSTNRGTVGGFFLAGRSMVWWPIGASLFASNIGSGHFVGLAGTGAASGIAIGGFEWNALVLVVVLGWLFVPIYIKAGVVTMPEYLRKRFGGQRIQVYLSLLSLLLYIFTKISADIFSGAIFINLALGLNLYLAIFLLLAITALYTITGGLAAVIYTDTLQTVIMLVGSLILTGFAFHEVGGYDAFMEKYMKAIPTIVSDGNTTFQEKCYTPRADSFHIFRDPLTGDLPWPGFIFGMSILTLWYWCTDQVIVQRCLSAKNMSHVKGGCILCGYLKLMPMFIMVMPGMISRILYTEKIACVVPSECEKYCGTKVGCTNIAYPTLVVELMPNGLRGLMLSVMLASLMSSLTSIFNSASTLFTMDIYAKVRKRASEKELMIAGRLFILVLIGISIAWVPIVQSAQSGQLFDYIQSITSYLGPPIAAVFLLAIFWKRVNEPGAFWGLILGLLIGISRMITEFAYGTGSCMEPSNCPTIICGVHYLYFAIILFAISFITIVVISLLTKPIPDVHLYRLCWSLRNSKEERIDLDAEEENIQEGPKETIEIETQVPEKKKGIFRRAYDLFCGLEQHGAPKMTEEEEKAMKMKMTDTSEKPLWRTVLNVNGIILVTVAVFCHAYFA
Method: Test 3: Inhibitory Effects on Human SGLT1 Activities
as §1, with “^14C-labeled” for “^14C-labeled AMG”, “inhibitor” for “the inventive compound”, “PRISM.” for “PRISM [Katsuno, K. et al. J. Pharmacol. Exp. Ther. 2007, 320, 323-330; Han, S. et al. Diabetes, 2008, 57, 1723-1729].”

Sequence of Human SGLT2 (hSGLT2) (P31639 whole entry): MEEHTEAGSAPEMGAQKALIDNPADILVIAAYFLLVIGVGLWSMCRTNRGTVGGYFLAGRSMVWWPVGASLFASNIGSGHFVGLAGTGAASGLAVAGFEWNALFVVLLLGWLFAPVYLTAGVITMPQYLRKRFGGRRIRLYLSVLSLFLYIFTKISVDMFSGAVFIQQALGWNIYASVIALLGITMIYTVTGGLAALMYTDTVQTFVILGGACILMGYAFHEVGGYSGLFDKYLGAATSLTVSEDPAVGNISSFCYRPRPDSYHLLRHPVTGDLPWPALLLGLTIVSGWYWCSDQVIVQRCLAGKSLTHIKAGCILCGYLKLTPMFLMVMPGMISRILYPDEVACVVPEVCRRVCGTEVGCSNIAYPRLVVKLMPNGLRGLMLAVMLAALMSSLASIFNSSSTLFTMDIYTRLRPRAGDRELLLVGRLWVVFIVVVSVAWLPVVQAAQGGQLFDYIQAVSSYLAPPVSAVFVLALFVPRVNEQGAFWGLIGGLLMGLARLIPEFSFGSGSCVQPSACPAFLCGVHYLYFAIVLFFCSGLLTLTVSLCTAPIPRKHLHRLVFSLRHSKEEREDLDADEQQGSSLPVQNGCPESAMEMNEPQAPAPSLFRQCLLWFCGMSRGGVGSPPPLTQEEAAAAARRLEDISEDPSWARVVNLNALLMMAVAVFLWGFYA

Compound: CCOc1ccc(Cc2cc([C@@H]3O[C@H](SC)[C@@H](O)[C@H](O)[C@H]3O)c3c(c2Cl)OCCO3)cc1 [Compound E021, (2S,3R,4R,5S,6R)-2-(8-Chloro-7-(4-ethoxybenzyl)-2,3-dihydrobenzo[b][1,4]dioxin-5-yl)-6-(methylthio)tetrahydro-2H-pyran-3,4,5-triol]
- pIC50 (Human SGLT2 (hSGLT2)): 9.15
- pIC50 (Human SGLT1 (hSGLT1)): 6.78

Compound: OC[C@H]1O[C@@H](c2cc(Cc3ccc(C4CC4)cc3)c(Cl)c3c2CCCO3)[C@H](O)[C@@H](O)[C@@H]1O [Compound E022, (2S,3R,4R,5S,6R)-2-(8-Chloro-7-(4-cyclopropylbenzyl)chroman-5-yl)-6-(hydroxymethyl)tetrahydro-2H-pyran-3,4,5-triol]
- pIC50 (Human SGLT2 (hSGLT2)): 9.06
- pIC50 (Human SGLT1 (hSGLT1)): 7.30

Compound: COc1ccc(Cc2cc([C@@H]3O[C@H](CO)[C@@H](O)[C@H](O)[C@H]3O)c3c(c2Cl)OCCC3)cc1 [Compound E023, (2S,3R,4R,5S,6R)-2-(8-Chloro-7-(4-methoxybenzyl)chroman-5-yl)-6-(hydroxymethyl)tetrahydro-2H-pyran-3,4,5-triol]
- pIC50 (Human SGLT2 (hSGLT2)): 8.68
- pIC50 (Human SGLT1 (hSGLT1)): 7.11

Compound: OC[C@H]1O[C@@H](c2cc(Cc3ccc(C4CC4)cc3)c(Cl)c3c2OCO3)[C@H](O)[C@@H](O)[C@@H]1O [Compound E024, (2S,3R,4R,5S,6R)-2-(7-Chloro-6-(4-cyclopropylbenzyl)benzo[d][1,3]dioxol-4-yl)-6-(hydroxymethyl)tetrahydro-2H-pyran-3,4,5-triol]
- pIC50 (Human SGLT2 (hSGLT2)): 9.43
- pIC50 (Human SGLT1 (hSGLT1)): 7.28

Compound: COc1ccc(Cc2cc([C@@H]3O[C@H](CO)[C@@H](O)[C@H](O)[C@H]3O)c3c(c2Cl)OCO3)cc1 [Compound E025, (2S,3R,4R,5S,6R)-2-(7-Chloro-6-(4-methoxybenzyl)benzo[d][1,3]dioxol-4-yl)-6-(hydroxymethyl)tetrahydro-2H-pyran-3,4,5-triol]
- pIC50 (Human SGLT2 (hSGLT2)): 8.92
- pIC50 (Human SGLT1 (hSGLT1)): 7.05

Compound: CCc1ccc(Cc2cc([C@@H]3O[C@H](CO)[C@@H](O)[C@H](O)[C@H]3O)c3c(c2Cl)OCO3)cc1 [Compound E026, (2S,3R,4R,5S,6R)-2-(7-Chloro-6-(4-ethylbenzyl)benzo[d][1,3]dioxol-4-yl)-6-(hydroxymethyl)tetrahydro-2H-pyran-3,4,5-triol]
- pIC50 (Human SGLT2 (hSGLT2)): 9.40
- pIC50 (Human SGLT1 (hSGLT1)): 7.06

Compound: OC[C@H]1O[C@@H](c2cc(Cc3ccc(C4CC4)cc3)c(Cl)c3c2OCCO3)[C@H](O)[C@@H](O)[C@@H]1O [Compound E027, (2S,3R,4R,5S,6R)-2-(8-Chloro-7-(4-cyclopropylbenzyl)-2,3-dihydrobenzo[b][1,4]dioxin-5-yl)-6-(hydroxymethyl)tetrahydro-2H-pyran-3,4,5-triol]
- pIC50 (Human SGLT2 (hSGLT2)): 9.19
- pIC50 (Human SGLT1 (hSGLT1)): 7.38

Compound: C=Cc1ccc(Cc2cc([C@@H]3O[C@H](CO)[C@@H](O)[C@H](O)[C@H]3O)c3c(c2Cl)OCC3)cc1 [Compound E028, (2S,3R,4R,5S,6R)-2-(7-Chloro-6-(4-vinylbenzyl)-2,3-dihydrobenzofuran-4-yl)-6-(hydroxymethyl)tetrahydro-2H-pyran-3,4,5-triol]
- pIC50 (Human SGLT2 (hSGLT2)): 9.43
- pIC50 (Human SGLT1 (hSGLT1)): 6.79

Compound: COc1ccc(Cc2cc([C@@H]3O[C@H](SC)[C@@H](O)[C@H](O)[C@H]3O)c3c(c2Cl)CCCO3)cc1 [Compound E029, (2S,3R,4R,5S,6R)-2-(5-Chloro-6-(4-methoxybenzyl)chroman-8-yl)-6-(methylthio)tetrahydro-2H-pyran-3,4,5-triol]
- pIC50 (Human SGLT2 (hSGLT2)): 9.33
- pIC50 (Human SGLT1 (hSGLT1)): 7.68

Compound: COc1ccc(Cc2cc([C@@H]3O[C@H](CO)[C@@H](O)[C@H](O)[C@H]3O)c3c(c2Cl)CCS3)cc1 [Compound E030, (2S,3R,4R,5S,6R)-2-(4-Chloro-5-(4-methoxybenzyl)-2,3-dihydrobenzo[b]thiophen-7-yl)-6-(hydroxymethyl)tetrahydro-2H-pyran-3,4,5-triol]
- pIC50 (Human SGLT2 (hSGLT2)): 8.64
- pIC50 (Human SGLT1 (hSGLT1)): 6.77

Compound: CCOc1ccc(Cc2cc([C@@H]3O[C@H](CO)[C@@H](O)[C@H](O)[C@H]3O)c3c(c2Cl)C(C)CO3)cc1 (stereo partly drawn) [Compound E031, (2S,3R,4R,5S,6R)-2-(4-Chloro-5-(4-ethoxybenzyl)-3-methyl-2,3-dihydrobenzofuran-7-yl)-6-(hydroxymethyl)-tetrahydro-2H-pyran-3,4,5-triol]
- pIC50 (Human SGLT2 (hSGLT2)): 8.70
- pIC50 (Human SGLT1 (hSGLT1)): 6.71

Compound: COc1ccc(Cc2cc([C@@H]3O[C@H](CO)[C@@H](O)[C@H](O)[C@H]3O)c3c(c2C(F)F)CCC3)cc1 [Compound E032, (2S,3R,4R,5S,6R)-2-(7-(Difluoromethyl)-6-(4-methoxybenzyl)-2,3-dihydro-1H-inden-4-yl)-6-(hydroxymethyl)tetrahydro-2H-pyran-3,4,5-triol]
- pIC50 (Human SGLT2 (hSGLT2)): 9.14
- pIC50 (Human SGLT1 (hSGLT1)): 7.78

Compound: CCc1ccc(Cc2cc([C@@H]3O[C@H](CO)[C@@H](O)[C@H](O)[C@H]3O)c3c(c2Cl)CCC3)cc1 [Compound E033, (2S,3R,4R,5S,6R)-2-(7-Chloro-6-(4-ethylbenzyl)-2,3-dihydro-1H-inden-4-yl)-6-(hydroxymethyl)tetrahydro-2H-pyran-3,4,5-triol]
- pIC50 (Human SGLT2 (hSGLT2)): 9.20
- pIC50 (Human SGLT1 (hSGLT1)): 7.24

Compound: COc1ccc(Cc2cc([C@@H]3O[C@H](CO)[C@@H](O)[C@H](O)[C@H]3O)c3c(c2Cl)SCC3)cc1 [Compound E034, (2S,3R,4R,5S,6R)-2-(7-Chloro-6-(4-methoxybenzyl)-2,3-dihydrobenzo[b]thiophen-4-yl)-6-(hydroxymethyl)tetrahydro-2H-pyran-3,4,5-triol]
- pIC50 (Human SGLT2 (hSGLT2)): 9.05
- pIC50 (Human SGLT1 (hSGLT1)): 7.56

Compound: CCc1ccc(Cc2cc([C@@H]3O[C@H](CO)[C@@H](O)[C@H](O)[C@H]3O)c3c(c2Cl)SCC3)cc1 [Compound E035, (2S,3R,4R,5S,6R)-2-(7-Chloro-6-(4-ethylbenzyl)-2,3-dihydrobenzo[b]thiophen-4-yl)-6-(hydroxymethyl)tetrahydro-2H-pyran-3,4,5-triol]
- pIC50 (Human SGLT2 (hSGLT2)): 9.06
- pIC50 (Human SGLT1 (hSGLT1)): 7.28

Compound: COc1ccc(Cc2cc([C@@H]3O[C@H](CO)[C@@H](O)[C@H](O)[C@H]3O)c3c(c2Cl)SCCC3)cc1 [Compound E036, (2S,3R,4R,5S,6R)-2-(8-Chloro-7-(4-methoxybenzyl)thiochroman-5-yl)-6-(hydroxymethyl)tetrahydro-2H-pyran-3,4,5-triol]
- pIC50 (Human SGLT2 (hSGLT2)): 9.26
- pIC50 (Human SGLT1 (hSGLT1)): 7.97

Compound: COc1ccc(Cc2cc([C@@H]3O[C@H](CO)[C@@H](O)[C@H](O)[C@H]3O)c3c(c2C)CCCC3)cc1 [Compound E037, (2R,3S,4R,5R,6S)-2-(Hydroxymethyl)-6-(3-(4-methoxybenzyl)-4-methyl-5,6,7,8-tetrahydronaphthalen-1-yl)tetrahydro-2H-pyran-3,4,5-triol]
- pIC50 (Human SGLT2 (hSGLT2)): 9.07
- pIC50 (Human SGLT1 (hSGLT1)): 7.98

Compound: COc1ccc(Cc2cc([C@@H]3O[C@H](CO)[C@@H](O)[C@H](O)[C@H]3O)c3c(c2Cl)CCCC3)cc1 [Compound E038, (2S,3R,4R,5S,6R)-2-(4-Chloro-3-(4-methoxybenzyl)-5,6,7,8-tetrahydronaphthalen-1-yl)-6-(hydroxymethyl)tetrahydro-2H-pyran-3,4,5-triol]
- pIC50 (Human SGLT2 (hSGLT2)): 9.22
- pIC50 (Human SGLT1 (hSGLT1)): 8.02

Compound: CCOc1ccc(Cc2cc([C@@H]3O[C@H](CO)[C@@H](O)[C@H](O)[C@H]3O)c3c(c2Cl)CCCC3)cc1 [Compound E039, (2S,3R,4R,5S,6R)-2-(4-Chloro-3-(4-ethoxybenzyl)-5,6,7,8-tetrahydronaphthalen-1-yl)-6-(hydroxymethyl)tetrahydro-2H-pyran-3,4,5-triol]
- pIC50 (Human SGLT2 (hSGLT2)): 9.21
- pIC50 (Human SGLT1 (hSGLT1)): 7.48
